*1 amine or outer side, *2 acyl side, *3 side chain or, on linkers, in order; H or OH if unused. Where a SMILES comes first, the peptide text is derived from it. Bridges are numbered along the chain shown (N, C = ends). [ ]: non-standard residue; d: D form. The star is where a group is joined. DOTA = O=C(O)CN1CCN(CC(=O)O)CCN(CC(=O)*)CCN(CC(=O)O)CC1; Phe(2-CF3) = N[C@@H](Cc1ccccc1C(F)(F)F)C(=O)O; Pro(trans-4-F) = O=C(O)[C@@H]1C[C@@H](F)CN1; d(γGlu) = O=C(O)[C@@H](CCC(=O)[*:2])N[*:1]; Pro(cis-4-F) = O=C(O)[C@@H]1C[C@H](F)CN1; Pro(4R-NH2) = N[C@H]1CN[C@H](C(=O)O)C1; cisHyp = O=C(O)[C@@H]1C[C@H](O)CN1; Hyp = O=C(O)[C@@H]1C[C@@H](O)CN1; dNle = CCCC[C@@H](N)C(=O)O; Pip = O=C(O)[C@@H]1CCCCN1; Ahx = NCCCCCC(=O)O

The values below come from patent US20250034210A1, “DLL3 TARGETING PEPTIDES AND CONSTRUCTS THEREOF” (MARIANA ONCOLOGY INC., priority 2023, published 2025).

For this test, the target named is T1, human DLL3 (Homo sapiens, UniProt Q9NYJ7).
T1 construct: biotin (biotinylated)
T1 sequence (Q9NYJ7 27-618): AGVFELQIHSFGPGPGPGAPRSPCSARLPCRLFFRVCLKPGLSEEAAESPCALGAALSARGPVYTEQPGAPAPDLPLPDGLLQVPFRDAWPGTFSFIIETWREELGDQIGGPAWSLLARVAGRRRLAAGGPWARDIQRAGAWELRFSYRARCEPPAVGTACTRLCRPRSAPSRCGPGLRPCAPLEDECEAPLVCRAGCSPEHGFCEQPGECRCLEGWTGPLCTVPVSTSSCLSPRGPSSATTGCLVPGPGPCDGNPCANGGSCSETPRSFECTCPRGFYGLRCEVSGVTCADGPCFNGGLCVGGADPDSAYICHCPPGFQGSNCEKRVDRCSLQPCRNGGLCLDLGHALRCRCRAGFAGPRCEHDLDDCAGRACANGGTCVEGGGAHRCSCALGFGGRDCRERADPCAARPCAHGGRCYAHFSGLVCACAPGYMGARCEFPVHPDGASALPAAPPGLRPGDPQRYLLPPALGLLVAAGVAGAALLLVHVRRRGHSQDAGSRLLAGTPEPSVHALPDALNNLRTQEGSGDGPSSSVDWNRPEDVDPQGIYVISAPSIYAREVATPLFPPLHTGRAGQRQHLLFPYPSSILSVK
Kind of test: Affinity determination by Surface Plasmon Resonance (SPR), biotinylated human DLL3 immobilized on streptavidin sensor chip. Particulars: 25° C., Biacore, 1:1 binding model. On the procedure: Affinity Determination by Surface Plasmon Resonance (SPR). SPR studies were performed on the compounds disclosed herein using the following protocol.
The binding affinity and binding kinetic parameters at 25° C. were determined using Biacore S200 or biacore 8K instrument. Biotinylated target ligand human DLL3 was immobilized on a streptavidin sensor chip. A reference surface was set up for nonspecific binding and refractive index changes. For analysis of the kinetics of interactions, varying concentrations of samples were injected at a flow rate of 100 μL/min using running buffer containing 20 mM phosphate buffer with 2.7 mM KCl, 137 mM NaCl, 0.05% Surfactant P20 and 2% DMSO. Sensorgram curves were fitted with 1:1 binding model, and affinity and kinetic parameters were obtained using Biacore Insight evaluation 4.0. software.
(In general: Surface plasmon resonance follows binding to a sensor surface in real time, without labels.)

For `C[C@@H](O)[C@H](NC(=O)[C@H](Cc1c[nH]c2ccccc12)NC(=O)CCCCCNC(=O)CN1CCN(CC(=O)O)CCN(CC(=O)O)CCN(CC(=O)O)CC1)C(=O)N[C@@H](Cc1ccccc1C(F)(F)F)C(=O)N[C@H]1CSSC[C@@H](C(=O)N[C@@H](Cc2c[nH]c3ccccc23)C(=O)N2CCC[C@H]2C(N)=O)NC(=O)[C@H](CC(=O)O)NC(=O)[C@H](Cc2cnc[nH]2)NC(=O)[C@H](Cc2c[nH]c3ccccc23)NC(=O)[C@H](CC(N)=O)NC(=O)[C@H](CC(N)=O)NC1=O` [compound 65, DOTA-Ahx-W-T-(2CF3-F)-C(3)-N-N-W-H-D-C(3)-W-P-CONH2] ({DOTA-Ahx}-WT[Phe(2-CF3)]CNNWHDCWP-NH2; disulfide 4-10), the Kd is 1 to 10 nM.
Then `CC[C@H](C)[C@H](NC(=O)[C@@H](NC(=O)[C@H](Cc1c[nH]c2ccccc12)NC(=O)CCCCCNC(=O)CN1CCN(CC(=O)O)CCN(CC(=O)O)CCN(CC(=O)O)CC1)[C@@H](C)O)C(=O)N[C@H]1CSSC[C@@H](C(=O)N[C@@H](Cc2c[nH]c3ccccc23)C(=O)N2C[C@H](F)C[C@H]2C(N)=O)NC(=O)[C@H](CC(=O)O)NC(=O)[C@H](Cc2cnc[nH]2)NC(=O)[C@H](Cc2c[nH]c3ccccc23)NC(=O)[C@H](CC(N)=O)NC(=O)[C@H](CC(N)=O)NC1=O` [compound 66, DOTA-Ahx-W-T-I-C(3)-N-N-W-H-D-C(3)-W-(trans4Fluoro-P)-CONH2] ({DOTA-Ahx}-WTICNNWHDCW[Pro(trans-4-F)]-NH2; disulfide 4-10), with 1 to 10 nM; and `CC[C@H](C)[C@H](NC(=O)[C@@H](NC(=O)[C@H](Cc1c[nH]c2ccccc12)NC(=O)CCCCCNC(=O)CN1CCN(CC(=O)O)CCN(CC(=O)O)CCN(CC(=O)O)CC1)[C@@H](C)O)C(=O)N[C@H]1CSSC[C@@H](C(=O)N[C@@H](Cc2c[nH]c3ccccc23)C(=O)N2C[C@@H](F)C[C@H]2C(N)=O)NC(=O)[C@H](CC(=O)O)NC(=O)[C@H](Cc2cnc[nH]2)NC(=O)[C@H](Cc2c[nH]c3ccccc23)NC(=O)[C@H](CC(N)=O)NC(=O)[C@H](CC(N)=O)NC1=O` [compound 67, DOTA-Ahx-W-T-I-C(3)-N-N-W-H-D-C(3)-W-(Cis4Fluoro-P)-CONH2] ({DOTA-Ahx}-WTICNNWHDCW[Pro(cis-4-F)]-NH2; disulfide 4-10), with 100 to 300 nM; and `CC[C@H](C)[C@H](NC(=O)[C@@H](NC(=O)[C@H](Cc1c[nH]c2ccccc12)NC(=O)CCCCCNC(=O)CN1CCN(CC(=O)O)CCN(CC(=O)O)CCN(CC(=O)O)CC1)[C@@H](C)O)C(=O)N[C@H]1CSSC[C@@H](C(=O)N[C@@H](Cc2c[nH]c3ccccc23)C(=O)N2C[C@H](O)C[C@H]2C(N)=O)NC(=O)[C@H](CC(=O)O)NC(=O)[C@H](Cc2cnc[nH]2)NC(=O)[C@H](Cc2c[nH]c3ccccc23)NC(=O)[C@H](CC(N)=O)NC(=O)[C@H](CC(N)=O)NC1=O` [compound 68, DOTA-Ahx-W-T-I-C(3)-N-N-W-H-D-C(3)-W-(trans4OH-P)-CONH2] ({DOTA-Ahx}-WTICNNWHDCW[Hyp]-NH2; disulfide 4-10), with 10 to 100 nM.
Then `CC[C@H](C)[C@H](NC(=O)[C@@H](NC(=O)[C@H](Cc1c[nH]c2ccccc12)NC(=O)CCCCCNC(=O)CN1CCN(CC(=O)O)CCN(CC(=O)O)CCN(CC(=O)O)CC1)[C@@H](C)O)C(=O)N[C@H]1CSSC[C@@H](C(=O)N[C@@H](Cc2c[nH]c3ccccc23)C(=O)N2C[C@@H](O)C[C@H]2C(N)=O)NC(=O)[C@H](CC(=O)O)NC(=O)[C@H](Cc2cnc[nH]2)NC(=O)[C@H](Cc2c[nH]c3ccccc23)NC(=O)[C@H](CC(N)=O)NC(=O)[C@H](CC(N)=O)NC1=O` [compound 69, DOTA-Ahx-W-T-I-C(3)-N-N-W-H-D-C(3)-W-(cis4OH-P)-CONH2] ({DOTA-Ahx}-WTICNNWHDCW[cisHyp]-NH2; disulfide 4-10), with 100 to 300 nM; and `CC[C@H](C)[C@H](NC(=O)[C@@H](NC(=O)[C@H](Cc1c[nH]c2ccccc12)NC(=O)CCCCCNC(=O)CN1CCN(CC(=O)O)CCN(CC(=O)O)CCN(CC(=O)O)CC1)[C@@H](C)O)C(=O)N[C@H]1CSSC[C@@H](C(=O)N[C@@H](Cc2c[nH]c3ccccc23)C(=O)N2CCCC[C@H]2C(N)=O)NC(=O)[C@H](CC(=O)O)NC(=O)[C@H](Cc2cnc[nH]2)NC(=O)[C@H](Cc2c[nH]c3ccccc23)NC(=O)[C@H](CC(N)=O)NC(=O)[C@H](CC(N)=O)NC1=O` [compound 70, DOTA-Ahx-W-T-I-C(3)-N-N-W-H-D-C(3)-W-(Pip)-CONH2] ({DOTA-Ahx}-WTICNNWHDCW[Pip]-NH2; disulfide 4-10), with 10 to 100 nM; and `CC[C@H](C)[C@H](NC(=O)[C@@H](NC(=O)[C@H](Cc1c[nH]c2ccccc12)NC(=O)[C@@H](CCCCNC(=O)CN1CCN(CC(=O)O)CCN(CC(=O)O)CCN(CC(=O)O)CC1)NC(C)=O)[C@@H](C)O)C(=O)N[C@H]1CSSC[C@@H](C(=O)N[C@@H](Cc2c[nH]c3ccccc23)C(=O)N2CCC[C@H]2C(N)=O)NC(=O)[C@H](CC(=O)O)NC(=O)[C@H](Cc2c[nH]cn2)NC(=O)[C@H](Cc2c[nH]c3ccccc23)NC(=O)[C@H](CC(N)=O)NC(=O)[C@H](CC(N)=O)NC1=O` [compound 73, Ac-D-Lys(DOTA)-W-T-I-C(3)-N-N-W-H-D-C(3)-W-P-CONH2] (Ac-[dK](DOTA)WTICNNWHDCWP-NH2; disulfide 5-11), with 10 to 100 nM.
Then `CCCC[C@@H](NC(=O)[C@@H]1CCCN1C(=O)[C@H](Cc1c[nH]c2ccccc12)NC(=O)[C@@H]1CSSC[C@H](NC(=O)[C@@H](NC(=O)[C@@H](NC(=O)[C@H](Cc2c[nH]c3ccccc23)NC(=O)CCCCCNC(=O)CN2CCN(CC(=O)O)CCN(CC(=O)O)CCN(CC(=O)O)CC2)[C@@H](C)O)[C@@H](C)CC)C(=O)N[C@@H](CC(N)=O)C(=O)N[C@@H](CC(N)=O)C(=O)N[C@@H](Cc2c[nH]c3ccccc23)C(=O)N[C@@H](Cc2cnc[nH]2)C(=O)N[C@@H](CC(=O)O)C(=O)N1)C(N)=O` [compound 163, DOTA-Ahx-W-T-I-C(3)-N-N-W-H-D-C(3)-W-P-(D-Nle)-NH2] ({DOTA-Ahx}-WTICNNWHDCWP[dNle]-NH2; disulfide 4-10), with 1 to 10 nM; and `CC[C@H](C)[C@H](NC(=O)[C@@H](NC(=O)[C@H](Cc1c[nH]c2ccccc12)NC(=O)CC[C@@H](NC(=O)CC[C@@H](NC(=O)CC[C@@H](NC(=O)CN1CCN(CC(=O)O)CCN(CC(=O)O)CCN(CC(=O)O)CC1)C(=O)O)C(=O)O)C(=O)O)[C@@H](C)O)C(=O)N[C@H]1CSSC[C@@H](C(=O)N[C@@H](Cc2c[nH]c3ccccc23)C(=O)N2CCC[C@H]2C(=O)O)NC(=O)[C@H](CC(=O)O)NC(=O)[C@H](Cc2c[nH]cn2)NC(=O)[C@H](Cc2c[nH]c3ccccc23)NC(=O)[C@H](CC(N)=O)NC(=O)[C@H](CC(N)=O)NC1=O` [compound 221, DOTA-(D-gE)3-W-T-I-C(3)-N-N-W-H-D-C(3)-W-P-CONH2] ({DOTA-d(γGlu)-d(γGlu)-d(γGlu)}-WTICNNWHDCWP-OH; disulfide 4-10), with 10 to 100 nM.
`CC[C@H](C)[C@H](NC(=O)[C@@H](NC(=O)[C@H](Cc1c[nH]c2ccccc12)NC(=O)CCCCCNC(=O)CN1CCN(CC(=O)O)CCN(CC(=O)O)CCN(CC(=O)O)CC1)[C@@H](C)O)C(=O)N[C@H]1CSSC[C@@H](C(=O)N[C@@H](Cc2c[nH]c3ccccc23)C(=O)N2C[C@H](N)C[C@H]2C(N)=O)NC(=O)[C@H](CC(=O)O)NC(=O)[C@H](Cc2cnc[nH]2)NC(=O)[C@H](Cc2c[nH]c3ccccc23)NC(=O)[C@H](CC(N)=O)NC(=O)[C@H](CC(N)=O)NC1=O` [compound 224, DOTA-Ahx-W-T-I-C(3)-N-N-W-H-D-C(3)-W-(trans4NH2-P)-CONH2] ({DOTA-Ahx}-WTICNNWHDCW[Pro(4R-NH2)]-NH2; disulfide 4-10) gave a Kd of 10 to 100 nM.

What is called Kd is the equilibrium constant for the complex coming apart. A lower Kd goes with higher affinity.
